From ChEMBL document CHEMBL5046264, “Cyclotides Chemosensitize Glioblastoma Cells to Temozolomide” (J Nat Prod, 2022) come the findings set out here.

Assay [1] concerns SH-SY5Y. The assay can be described thus: Cytotoxicity against human SH-SY5Y cells using best fit nonlinear regression analysis. It counts as functional, cell-based.
The next assay has as its system U-251. Description: Cytotoxicity against human U-251 cells by sulforhodamine B assay. The class given is functional, cell-based. On the technique in general: The SRB assay estimates cell density from bound dye.
Assay [2] relates to U-87 MG. The assay can be described thus: Cytotoxicity against human U-87 MG cells by sulforhodamine B assay. The class given is functional, cell-based, U-87MG ATCC.
Assay [3] has as its system SH-SY5Y. The assay can be described thus: Cytotoxicity against human SH-SY5Y cells assessed as cell viability using raw interpretation method. It counts as functional, cell-based.
Assay [4] deals with U-87 MG. Description: Cytotoxicity against human U-87 MG cells assessed as cell viability using raw interpretation method. It counts as functional, cell-based, U-87MG ATCC.
Assay [5] deals with U-87 MG. Description: Cytotoxicity against human U-87 MG cells using best fit nonlinear regression analysis. It counts as functional, cell-based, U-87MG ATCC.
Assay [6] concerns SH-SY5Y. Description: Cytotoxicity against human SH-SY5Y cells assessed as cell viability at 5 uM upto 72 hrs by MTT assay. The settings on record: time hrs <=72, read-out: Activity. It counts as functional.
Assay [7] relates to U-87 MG. Description: Cytotoxicity against human U-87 MG cells assessed as cell viability at 5 uM upto 72 hrs by MTT assay. The class given is functional, U-87MG ATCC. The conditions noted are these: time hrs <=72, read-out: Activity. On the technique in general: Tetrazolium assays rely on reduction of a dye to a coloured formazan, in cell work by metabolically active cells.

Assay [8] has as its system SH-SY5Y. The assay can be described thus: Cytotoxicity against human SH-SY5Y cells assessed as cell viability at 10 uM upto 72 hrs by MTT assay. It counts as functional. The settings on record: time hrs <=72, read-out: Activity.
In assay [9] the test system is U-87 MG. The assay can be described thus: Cytotoxicity against human U-87 MG cells assessed as cell viability at 10 uM upto 72 hrs by MTT assay. It counts as functional, U-87MG ATCC. The conditions noted are these: time hrs <=72, read-out: Activity.
The test system of assay [10] is SH-SY5Y. Description: Cytotoxicity against human SH-SY5Y cells assessed as TMZ-induced cell death at 1.4 uM cotreated with 176 uM of TMZ incubated upto 72 hrs by MTT assay. It counts as functional, cell-based. The conditions noted are these: time hrs <=72.
The subject of assay [11] is U-87 MG. Description: Cytotoxicity against human U-87 MG cells assessed as TMZ-induced cell death at 0.35 to 2.8 uM cotreated with 176 to 704 uM of TMZ incubated upto 72 hrs by MTT assay. It counts as functional, cell-based. The settings on record: U-87MG ATCC, dose 0.35-2.8 µM, time hrs <=72.
Assay [12] relates to U-87 MG. The assay can be described thus: Cytotoxicity against human U-87 MG cells assessed as TMZ-induced cell death at 4.2 uM cotreated with 1408 uM of TMZ incubated upto 72 hrs by MTT assay. It counts as functional, cell-based. The conditions noted are these: U-87MG ATCC, time hrs <=72.
Assay [13] relates to U-87 MG. Description: Induction of morphological changes in human U-87 MG cells assessed as appearance of shrunken cell bodies at 1408 uM measured after 72 hrs by phase contrast microscopy. The class given is functional, U-87MG ATCC.
Assay [14] relates to U-87 MG. The assay can be described thus: Induction of morphological changes in human U-87 MG cells assessed as membrane blebbing at 1408 uM measured after 72 hrs by phase contrast microscopy. It counts as functional, U-87MG ATCC.
The subject of assay [15] is U-87 MG. The assay can be described thus: Induction of morphological changes in human U-87 MG cells assessed as appearance of undergoing apoptosis at 1408 uM measured after 72 hrs by phase contrast microscopy. The class given is functional, U-87MG ATCC.
Assay [16] relates to U-87 MG. The assay can be described thus: Induction of morphological changes in human U-87 MG cells assessed as cell death at 4.2 uM cotreated with 1408 uM of TMZ measured after 72 hrs by phase contrast microscopy. It counts as functional, U-87MG ATCC.
Assay [17] relates to U-87 MG. Description: Effect on cell morphology in human U-87 MG cells at 4.2 uM cotreated with 1408 uM of TMZ measured after 72 hrs by phase contrast microscopy. The class given is functional, cell-based. The conditions noted are these: U-87MG ATCC.

pIC50: −log10 of the molar value. Activity calls are given as the source filed them. The rule behind the calls is not given here.

Take `CC(C)C[C@@H]1NC(=O)CNC(=O)[C@H](CC(N)=O)NC(=O)[C@H](CCCNC(=N)N)NC(=O)[C@H]([C@@H](C)O)NC(=O)[C@@H]2CSSC[C@@H]3NC(=O)[C@H]([C@@H](C)O)NC(=O)CNC(=O)CNC(=O)[C@H](C(C)C)NC(=O)[C@@H]4CSSC[C@H](NC(=O)[C@H]([C@@H](C)O)NC(=O)[C@H](CSSC[C@H](NC(=O)[C@H](C(C)C)NC(=O)[C@@H]5CCCN5C1=O)C(=O)NCC(=O)N[C@@H](CCC(=O)O)C(=O)N[C@@H]([C@@H](C)O)C(=O)N4)NC(=O)CNC(=O)[C@@H]1CCCN1C(=O)[C@H]([C@@H](C)O)NC(=O)[C@H](CC(N)=O)NC3=O)C(=O)N[C@@H](CO)C(=O)N[C@@H](Cc1c[nH]c3ccccc13)C(=O)N1CCC[C@H]1C(=O)N[C@@H](C(C)C)C(=O)N2`: the pIC50 (commonly −log10 of the IC50, conventionally taken in molar units) with SH-SY5Y [1] was 5.25; with U-251, 4.96; in the assay with U-87 MG [2], 5.49; in the assay with SH-SY5Y [3] it was 5.22; in the assay with U-87 MG [4], 5.10; in the assay on U-87 MG [5], 5.10. Moreover, the viability at 5 µM with SH-SY5Y [6] and in the assay with U-87 MG [7] was 60% each time. The viability at 10 µM with SH-SY5Y [8] is 20%; in the assay on U-87 MG [9], 40%.

Turning to `CC(C)C[C@@H]1NC(=O)CNC(=O)[C@H](CC(N)=O)NC(=O)[C@H](CCCNC(=N)N)NC(=O)[C@H](CO)NC(=O)[C@@H]2CSSC[C@@H]3NC(=O)[C@H]([C@@H](C)O)NC(=O)CNC(=O)CNC(=O)[C@H](C(C)C)NC(=O)[C@@H]4CSSC[C@H](NC(=O)[C@H]([C@@H](C)O)NC(=O)[C@H](CSSC[C@H](NC(=O)[C@H](C(C)C)NC(=O)[C@@H]5CCCN5C1=O)C(=O)NCC(=O)N[C@@H](CCC(=O)O)C(=O)N[C@@H]([C@@H](C)O)C(=O)N4)NC(=O)CNC(=O)[C@@H]1CCCN1C(=O)[C@H]([C@@H](C)O)NC(=O)[C@H](CC(N)=O)NC3=O)C(=O)N[C@@H](CO)C(=O)N[C@@H](Cc1c[nH]c3ccccc13)C(=O)N1CCC[C@H]1C(=O)N[C@@H](C(C)C)C(=O)N2`, the pIC50 with SH-SY5Y [1] was 5.54; in the assay on SH-SY5Y [3], 5.45; in the assay on U-87 MG [4], 5.42; in the assay on U-87 MG [5], 5.54. Besides, in the assay on U-251, 37.2 µg/mL corresponded to half-maximal inhibition (IC50). The viability at 5 µM came to 13.2% with SH-SY5Y [6] and 29.6% in the assay with U-87 MG [7]. Also, the outcome in the assay with SH-SY5Y [10], in the assay on U-87 MG [11], with U-87 MG [12] and with U-87 MG [17] was Active. Also, the Activity was found to be 40% in the assay with U-87 MG [13], 40% in the assay with U-87 MG [14], 40% with U-87 MG [15] and 50% in the assay with U-87 MG [16].
